pIC50: −log10 of the molar value.
Columns and labels:
[1] = system: Salmonella typhimurium TA98 line, TA100 line; assay: Fat Test (mutagenicity in Salmonella typhimurium); assay type: cell-based; design: key: When the mutagenicity is negative, the compound is shown as (−); When positive, the compound is shown as (+); conditions: TA98 and TA100 lines, non-metabolism-activation and metabolism-activation conditions
Method: 20 μL of Salmonella enterica subsp. typhimurium (Salmonella typhimurium TA98 line, TA100 line) cryopreserved was inoculated to 10 mL of liquid nutrient medium (2.5% Oxoid nutrient broth No. 2) and then precultured at 37° C. for 10 hours with shaking. Regarding TA98 line, after 9 mL of a bacterial suspension was centrifuged (2000×g, 10 minutes) to remove the culture solution, the bacteria was suspended in 9 mL of Micro F buffer solution (K2HPO4: 3.5 g/L, KH2PO4: 1 g/L, (NH4)2SO4: 1 g/L, tri-sodium citric acid dihydrate: 0.25 g/L, MgSO4.7H2O: 0.1 g/L), and then added to 110 mL of Exposure media (Micro F buffer solution containing biotin: 8 μg/mL, histidine: 0.2 μg/mL, glucose: 8 mg/mL). Regarding TA 100 line, 120 mL of Exposure media was added to 3.16 mL of the bacterial suspension to prepare a test bacterial suspension. 12 μL of a solution of a test substance in DMSO (diluted eight times in a common ratio of 2 from the maximum dose of 50 mg/mL); 12 μL of DMSO as a negative control; 50 μg/mL 4-nitroquinoline-1-oxide solution in DMSO for TA98 line or 0.25 μg/mL 2-(2-furyl)-3-(5-nitro-2-furyl)acrylamide solution in DMSO as a positive control for TA 100 line in the case of a non-metabolism-activation condition; 12 μL of 40 μg/mL 2-aminoanthracene solution in DMSO for TA98 line or 20 μg/mL of 2-aminoanthracene solution in DMSO for TA100 line in the case of a metabolism-activation condition; were each mixed with 588 μL of the test bacterial suspension (in the case of a metabolism activation condition, a mixed solution of 498 μL of the test bacterial suspension and 90 μL S9 mix) and then cultured at 37° C. at 90 minutes with shaking. 460 μL of the bacterial suspension to which a test substance was exposed was mixed with 2300 μL of Indicator media (a Micro F buffer solution containing 8 μg/mL biotin, 0.2 μg/mL histidine, 8 mg/mL glucose, and 37.5 μg/mL bromocresol purple). […] Thus, in 48 wells per dose, the number of the bacteria-proliferation wells in which the color changed to yellow was counted, compared with a group of negative controls, and then evaluated. […]

CYP1A2 = target: T1, CYP1A2 (Homo sapiens, UniProt P05177); assay: CYP inhibition test, O-de-ethylation of 7-ethoxyresorufin; assay type: in vitro ADME; conditions: pooled human liver microsome; one of 5 kinds
T1 construct: enzyme: pooled human liver microsome 0.2 mg protein/mL; from tissue; host or cells: pooled human liver microsomes
T1 sequence (P05177 1-516): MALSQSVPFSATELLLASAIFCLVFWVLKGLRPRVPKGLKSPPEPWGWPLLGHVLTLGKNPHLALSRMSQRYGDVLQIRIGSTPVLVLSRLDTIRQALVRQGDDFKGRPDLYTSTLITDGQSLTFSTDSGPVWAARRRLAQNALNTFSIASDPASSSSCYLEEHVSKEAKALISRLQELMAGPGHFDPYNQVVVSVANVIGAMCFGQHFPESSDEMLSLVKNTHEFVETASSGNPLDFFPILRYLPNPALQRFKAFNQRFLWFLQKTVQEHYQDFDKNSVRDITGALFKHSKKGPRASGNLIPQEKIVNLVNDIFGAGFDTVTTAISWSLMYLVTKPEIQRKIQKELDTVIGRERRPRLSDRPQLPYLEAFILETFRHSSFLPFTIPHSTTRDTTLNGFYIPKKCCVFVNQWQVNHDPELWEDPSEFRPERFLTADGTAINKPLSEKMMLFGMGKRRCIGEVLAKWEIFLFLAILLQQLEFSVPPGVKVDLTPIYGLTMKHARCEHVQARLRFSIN
Description: (§1) O-de-ethylation of 7-ethoxyresorufin (CYP1A2), methyl-hydroxylation of tolbutamide (CYP2C9), 4′-hydroxylation of mephenyloin (CYP2C19), O-demethylation of dextromethorphan (CYP2D6), and hydroxylation of terfenadine (CYP3A4), which are typical substrate for metabolic reactions of human main CYP5 molecular species (CYP1A2, 2C9, 2C19, 2D6, and 3A4), were adopted as indexes.
(§2) The reaction conditions are as follows: substrate: 0.5 μmol/L of ethoxyresorufin (CYP1A2), 100 μmol/L of tolbutamide (CYP2C9), 50 μmol/L of S-mephenyloin (CYP2C19), […] of dextromethorphan (CYP2D6), and 1 μmol/L of terfenadine (CYP3A4); reaction time; 15 minutes; reaction temperature: 37° C.; enzyme: pooled human liver microsome 0.2 mg protein/mL; test drug concentration: 1, 5, 10, and 20 μmol/L (4 points).
(§3) In a 96-well plate, as a reaction solution, five kinds of substrates, a human liver microsome, and a test drug were added to 50 mmol/L Hepes buffer solution in the aforementioned ratio. A coenzyme NADPH was added to start a metabolic reaction, which is an index. After reacting at 37° C. for 15 minutes, a solution of methanol/acetonitrile (1/1 (v/v)) was added to quench the reaction. After centrifugation at 3000 rpm for 15 minutes, resorufin (CYP1A2 metabolite) in the supernatant was quantitated with a fluorescence multilabel counter, and hydroxylated tolbutamide (CYP2C9 metabolite), 4′-hydroxylated mephenyloin (CYP2C19 metabolite), […], terfenadine in alcohol form (CYP3A4 metabolite) were quantitated with LC/MS/MS.
(§4) The case wherein only DMSO (a solvent which dissolved a drug) was added to a reaction system was defined as a control (100%). When a test drug solution was added, the remaining activity (%) at each concentration was calculated, and then IC50 was calculated with a concentration and an inhibition ratio by an inverse estimation using a logistic model.

CYP2C9 = target: T2, CYP2C9 (Homo sapiens, UniProt P11712); assay: CYP inhibition test, methyl-hydroxylation of tolbutamide; assay type: in vitro ADME; conditions: pooled human liver microsome; one of 5 kinds
T2 construct: enzyme: pooled human liver microsome 0.2 mg protein/mL; from tissue; host or cells: pooled human liver microsomes
T2 sequence (P11712 whole entry): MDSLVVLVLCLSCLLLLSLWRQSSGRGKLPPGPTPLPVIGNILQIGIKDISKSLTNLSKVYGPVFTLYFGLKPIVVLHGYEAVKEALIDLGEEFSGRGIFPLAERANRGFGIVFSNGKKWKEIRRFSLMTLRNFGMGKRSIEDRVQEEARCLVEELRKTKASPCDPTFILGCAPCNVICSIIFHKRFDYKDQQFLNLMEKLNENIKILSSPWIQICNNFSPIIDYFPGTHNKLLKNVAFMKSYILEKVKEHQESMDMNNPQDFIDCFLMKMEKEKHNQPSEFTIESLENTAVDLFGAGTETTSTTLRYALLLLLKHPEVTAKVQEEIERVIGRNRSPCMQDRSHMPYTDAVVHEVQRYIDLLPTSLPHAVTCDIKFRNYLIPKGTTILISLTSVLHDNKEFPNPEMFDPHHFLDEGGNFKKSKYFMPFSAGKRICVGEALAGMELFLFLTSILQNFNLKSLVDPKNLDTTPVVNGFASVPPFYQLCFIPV
Description: as §1, §2, §3, §4

CYP2C19 = target: T3, CYP2C19 (Homo sapiens, UniProt P33261); assay: CYP inhibition test, 4′-hydroxylation of mephenyloin; assay type: in vitro ADME; conditions: pooled human liver microsome; one of 5 kinds
T3 construct: enzyme: pooled human liver microsome 0.2 mg protein/mL; from tissue; host or cells: pooled human liver microsomes
T3 sequence (P33261 whole entry): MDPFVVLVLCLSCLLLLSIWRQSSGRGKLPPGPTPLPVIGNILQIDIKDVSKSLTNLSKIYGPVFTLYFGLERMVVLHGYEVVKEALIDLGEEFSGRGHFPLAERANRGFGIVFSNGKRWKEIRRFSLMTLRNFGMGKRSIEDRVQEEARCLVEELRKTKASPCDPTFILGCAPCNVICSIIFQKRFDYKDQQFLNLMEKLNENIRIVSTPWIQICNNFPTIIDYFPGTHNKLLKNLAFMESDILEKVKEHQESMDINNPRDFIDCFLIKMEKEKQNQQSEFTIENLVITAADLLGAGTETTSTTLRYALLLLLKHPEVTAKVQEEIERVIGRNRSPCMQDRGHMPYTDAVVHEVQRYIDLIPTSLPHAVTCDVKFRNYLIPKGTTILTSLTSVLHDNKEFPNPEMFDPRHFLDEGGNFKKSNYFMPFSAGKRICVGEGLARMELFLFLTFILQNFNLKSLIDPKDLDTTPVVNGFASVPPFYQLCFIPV
Description: as §1, §2, §3, §4

CYP3A4 = target: T4, CYP3A4 (Homo sapiens, UniProt P08684); assay: CYP inhibition test, hydroxylation of terfenadine; assay type: in vitro ADME; conditions: pooled human liver microsome; one of 5 kinds
T4 construct: enzyme: pooled human liver microsome 0.2 mg protein/mL; from tissue; host or cells: pooled human liver microsomes
T4 sequence (P08684 whole entry): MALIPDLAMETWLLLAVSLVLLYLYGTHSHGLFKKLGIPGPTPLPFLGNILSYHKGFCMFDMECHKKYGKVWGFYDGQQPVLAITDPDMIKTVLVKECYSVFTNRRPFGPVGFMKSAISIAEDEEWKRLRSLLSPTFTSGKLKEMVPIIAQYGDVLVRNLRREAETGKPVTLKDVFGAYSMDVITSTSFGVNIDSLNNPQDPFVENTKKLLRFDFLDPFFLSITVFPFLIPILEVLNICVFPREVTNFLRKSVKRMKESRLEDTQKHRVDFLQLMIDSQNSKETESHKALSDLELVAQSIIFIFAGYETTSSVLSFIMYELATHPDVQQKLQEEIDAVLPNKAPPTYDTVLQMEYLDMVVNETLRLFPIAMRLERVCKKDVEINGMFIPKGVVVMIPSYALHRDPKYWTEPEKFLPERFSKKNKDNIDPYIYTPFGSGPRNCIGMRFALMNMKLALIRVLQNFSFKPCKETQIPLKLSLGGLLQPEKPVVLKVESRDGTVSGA
Description: as §1, §2, §3, §4

| pIC50 (CYP1A2) | pIC50 (CYP2C9) | pIC50 (CYP2C19) | pIC50 (CYP3A4) | Compound | mutagenicity [1] |
| --- | --- | --- | --- | --- | --- |
| – | – | – | – | O=C(O)c1ccccc1Nc1ccc2c(n1)N(C(=O)Nc1ccccc1)CCO2 [Compound I-145] | (−) |
| < 4.70 | < 4.70 | < 4.70 | < 4.70 | O=C(O)COc1cccc(Nc2ccc3c(n2)N(C(=O)Nc2ccccc2)CCO3)c1 [Compound I-240] | – |

Reference: US20110172217A1, “RING-FUSED MORPHOLINE DERIVATIVE HAVING PI3K-INHIBITING ACTIVITY” (Shionogi & Co., Ltd., priority 2008, published 2011)
